Measured values taken from patent US4369325A, “1,3-Diaryl-2-imino-imidazolidines and compounds” (EGYT Gyogyszervegyeszeti Gyar, priority 1978, dated 1983).
Like-named read-outs stand apart in the source and are kept apart here.

Columns and labels:
[1] = tested on: sodium:potassium ratio of the urine; test: saluretic / DOCA-antagonizing effect, method of Kagawa (sodium:potassium ratio of the urine); format: in vivo, rats; details: for potassium-retentive diuretic effect: in words
Text: This means that these compounds promote the excretion of sodium ions to a far greater extent than that of potassium ions, thus the sodium:potassium ratio measured in the urine is favourably high. The saluretic effect was examined on rats according to the method of Kagawa (J. Pharm. Exp. Ther. 126, 123 /1959/). The sodium:potassium ratio of the urine was decreased experimentally by introducing deoxycorticosterone acetate (DOCA) into the animals, and the DOCA-antagonizing effects of the compounds were measured. The effects of the two new compounds examined in this test were essentially the same as that of Spironolactone, utilized as reference substance.

[2] = antiphlogistic effect (test not specified); details: in vivo
[3] = tested on: longitudinal smooth muscle of guinea pig ileum; test: spontaneous activity of the longitudinal smooth muscle of guinea pig ileum in vitro
[4] = tested on: isolated rat uterine horn; test: spontaneous activity of isolated rat uterine horn in vitro
[5] = tested on: gastric acid secretion; test: gastric acid secretion; details: in vivo
Text: (§1) 1,3-Bis(2',6'-dimethylphenyl)-2-imino-4-methyl-imidazoline fumarate is far more advantageous than Indomethacine also with regard to its toxicological properties. […] Based on the above, the new compound according to the invention can be applied in the treatment of inflammatory disorders with a far greater degree of safety than Indomethacine.

[6] = tested on: adjuvant arthritis; test: adjuvant arthritis test; details: in vivo
[7] = tested on: carrageenin-induced plantar oedema; test: carrageenin-induced plantar oedema test; format: in vivo, rats; details: Rattus norvegicus, read-out: ED50 value, carrageenin-induced plantar oedema test
[8] = tested on: serotonine receptors; test: blocking of serotonine receptors
Text: as §1

[9] = tested on: histamine receptors; test: blocking of histamine receptors
Text: as §1

[10] = tested on: cotton granuloma; test: cotton granuloma test; details: in vivo
[11] = tested on: prostaglandine synthetase enzyme; test: inhibition of prostaglandine synthetase enzyme; format: biochemical
Text: as §1

[12] = in vivo
Text: as §1

[13] = LD50 determined on rats after oral administration; details: rat, in vivo
Text: as §1

[14] = tested on: urine excretion; test: Lipschitz test, urine excretion of rats; format: in vivo; details: for Urine: 5 hr, control 5.82
Text: Some of the compounds according to the invention also exert favourable diuretic effects.

[15] = second experiment, 480 μg/animal p.o. with hormone substitution (DOCA) 12.5 μg/animal s.c.
[16] = first experiment, 480 μg/animal p.o. with hormone substitution (DOCA) 12.5 μg/animal s.c.

SMILES: COc1ccc(COC(=O)N=C2N(c3c(C)cccc3C)CC(C)N2c2c(C)cccc2C)cc1 (centres unmarked) [1,3-Bis(2',6'-dimethylphenyl)-2-(p-methoxy-benzyloxycarbonyl)-imino-4-methyl-imidazolidine]
- potassium-retentive diuretic effect [1]: strong potassium-retentive diuretic effect

SMILES: CCOC(=O)N=C1N(c2c(C)cccc2C)CC(C)N1c1c(C)cccc1C (centres unmarked) [1,3-Bis(2',6'-dimethylphenyl)-2-carbethoxyimino-4-methyl-imidazolidine]
- Effects* [1, 15]: 1.19

SMILES: Cc1cccc(C)c1N1C(=N)N(c2c(C)cccc2C)[C@@H](C)[C@H]1C [1,3-Bis(2',6'-dimethylphenyl)-2-imino-4,5-cis-dimethylimidazolidine]
- potassium-retentive diuretic effect [1]: also exert potassium-retentive diuretic effect, they are, however, less effective than the compounds listed in Table 2

SMILES: Cc1cccc(C)c1N1CC(CC(N)=O)N(c2c(C)cccc2C)C1=N (centres unmarked) [1,3-Bis(2',6'-dimethylphenyl)-2-imino-4-carboxamidomethyl-imidazolidine]
- antiphlogistic effects [2]: significant antiphthlogistic effects

SMILES: Cc1cccc(C)c1N1CC(CCl)N(c2c(C)cccc2C)C1=N (centres unmarked) [1,3-Bis(2',6'-dimethylphenyl)-2-imino-4-chloromethyl-imidazolidine]
- antiphlogistic effects [2]: significant antiphthlogistic effects

SMILES: Cc1cccc(C)c1N1CC(C)N(c2c(C)cccc2C)C1=N (centres unmarked) [1,3-Bis(2',6'-dimethylphenyl)-2-imino-4-methylimidazolidine]
- spontaneous activity of the longitudinal smooth muscle of guinea pig ileum [3]: increase the spontaneous activity
- potassium-retentive diuretic effect [1]: also exert potassium-retentive diuretic effect, they are, however, less effective than the compounds listed in Table 2
- spontaneous activity of isolated rat uterine horn [4]: increase the spontaneous activity

SMILES: Cc1cccc(C)c1N1CC(C(=O)O)N(c2c(C)cccc2C)C1=N (centres unmarked) [1,3-Bis(2',6'-dimethylphenyl)-2-imino-imidazolidine-4-carboxylic acid]
- antiphlogistic effects [2]: significant antiphthlogistic effects

SMILES: CC1CN(c2ccc(Cl)cc2)C(=N)N1c1ccc(Cl)cc1 (centres unmarked) [1,3-Bis(4'-chlorophenyl)-2-imino-4-methyl-imidazolidine]
- antiphlogistic effects [2]: significant antiphthlogistic effects

SMILES: Cc1cccc(C)c1N1CC(C)N(c2c(C)cccc2C)C1=N.O=C(O)/C=C/C(=O)O (centres unmarked) [1,3-bis(2',6'-dimethylphenyl)-2-imino-4-methyl-imidazolidine fumarate]
- gastric acid secretion [5]: decreases gastric acid secretion to a medium degree
- activity in the adjuvant arthritis test [6]: considerable activity
- ED50 ([7]; rats, oral administration): 11 mg/kg
- connection of the antiphlogistic effect with blocking of serotonine receptors [8]: not connected with the blocking of serotonine or histamine receptors
- connection of the antiphlogistic effect with blocking of histamine receptors [9]: not connected with the blocking of serotonine or histamine receptors
- activity in the cotton granuloma test [10]: considerable activity
- inhibition of prostaglandine synthetase enzyme [11]: does not inhibit the function of prostaglandine synthetase enzyme
- ulcerogeneous side effect [12]: far lower than that of Indomethacine
- LD50 [13]: 150 mg/kg

SMILES: CCOC(=O)NC(=S)N=C1N(c2c(C)cccc2C)CC(C)N1c1c(C)cccc1C (centres unmarked) [1-(1',3'-Bis/2",6"-dimethylphenyl/-4'-methyl-imidazolidine-2'-ylidene)-3-carbethoxy-thiourea]
- Effects* [1, 16]: 1.02
- Urine ([14]; 25 mg/kg p.o.): 11.16 ml/kgx5 hr.
- diuretic effect / increase of urine excretion ([14]; rats, compared with urea): increases the urine excretion of rats to the same degree as urea

SMILES: Cc1cccc(N2CC(C)N(c3ccc(Cl)cc3)C2=N)c1C (centres unmarked) [1-(2',3'-Dimethylphenyl)-2-imino-3-(4'-chlorophenyl)-4-methyl-imidazolidine]
- potassium-retentive diuretic effect [1]: also exert potassium-retentive diuretic effect, they are, however, less effective than the compounds listed in Table 2

SMILES: Cc1cccc(C)c1N1C(=N)N(c2ccc(Cl)cc2)CC1C (centres unmarked) [1-(4'-Chlorophenyl)-2-imino-3-(2',6'-dimethylphenyl)-4-methyl-imidazolidine]
- antiphlogistic effects [2]: significant antiphthlogistic effects

SMILES: CC(=O)OCC(=O)[C@H]1CC[C@H]2[C@@H]3CCC4=CC(=O)CC[C@]4(C)[C@H]3CC[C@]12C [DOCA, deoxycorticosterone acetate, reference compound]
- Effects* ([1]; first experiment, DOCA alone, 12.5 μg/animal s.c.): 0.75
- Effects* ([1]; second experiment, DOCA alone, 12.5 μg/animal s.c.): 0.88

SMILES: COc1ccc2c(c1)c(CC(=O)O)c(C)n2C(=O)c1ccc(Cl)cc1 [Indomethacine, reference compound]
- ED50 ([7]; po): 20 mg/kg
- LD50 [13]: 20 mg/kg

SMILES: COC(=O)C1CN(c2c(C)cccc2C)C(=N)N1c1c(C)cccc1C (centres unmarked) [Methyl 1,3-bis(2',6'-dimethylphenyl)-2-imino-imidazolidine-4-carboxylate]
- potassium-retentive diuretic effect [1]: also exert potassium-retentive diuretic effect, they are, however, less effective than the compounds listed in Table 2

SMILES: CC(=O)S[C@@H]1CC2=CC(=O)CC[C@]2(C)[C@H]2CC[C@@]3(C)[C@@H](CC[C@@]34CCC(=O)O4)[C@H]12 [Spironolactone, reference compound]
- Effects* [1, 16]: 1.17
- Effects* [1, 15]: 1.19

SMILES: NC(N)=O [Urea, reference compound]
- Urine ([14]; 960 mg/kg p.o.): 11.54 ml/kgx5 hr.
